This series can be described thus: circulating plasma concentration of estradiol from an ILP system in HRT. Type of series: in vivo. As to conditions: ILP (interlabial pad) system releasing 100 mg/day of estradiol as its 3-acetate ester; hormone replacement therapy. From the text:
In one embodiment, a kit is provided for administering the medication from the drug delivery device. The kit includes an interlabial pad, and a package such as a plastic vial or a plastic or foil container, for packaging the interlabial pad. The kit can also include directions for the use of the pad. The pad can contain a unit dose of the medication, for example an anti-infective, such as gynelotrimin. Another example is the delivery of estradiol to treat vaginal atrophy or for hormone replacement therapy (HRT). In HRT, and ILP system releasing […] of estradiol as its 3-acetate ester maintains a circulating plasma concentration of 300 pmol/L of the drug, which is within the clinically desirable range for HRT.

The structures appear in SMILES notation.

`C[C@]12CC[C@@H]3c4ccc(O)cc4CC[C@H]3[C@@H]1CC[C@@H]2O` [estradiol] gave a circulating plasma concentration of 300 pmol/L.
